Measurements published in publication PMC6468590, “Novel Flavivirus Antiviral That Targets the Host Nuclear Transport Importin α/β1 Heterodimer” (Cells, 2019).

Biological target: T1, IMPα2 (importin α, IMPα) (Mus musculus, UniProt P52293)
T1 construct: gene Kpna2; full-length His6-IMPα2 and IMPαΔIBB (residues 67–529, ARM repeat domain)
Assay: multi-wavelength analytical ultracentrifugation (co-sedimentation at […] nm), SYPRO orange thermal shift and CD; the IC50 is AlphaScreen inhibition of IMPα binding to IMPβ[…]

O=C1Nc2ccc(I)cc2/C1=C/c1cc(Br)c(O)c(Br)c1 [GW5074]
IC50: 10.3 ± 0.8 µM
